Counter-ions that a name gives are not always drawn.
melting point	Compound
263 to 265 °C	O=C(O)C1=C[C@@]2(CC1)CCN(C(=O)c1ccc(NC(=O)c3ccccc3-c3ccccc3)cc1)c1ccccc1C2
180 to 185 °C (dec.)	CN(C)CCNC(=O)C1=C[C@@]2(CC1)CCN(C(=O)c1ccc(NC(=O)c3ccccc3-c3ccccc3)cc1)c1ccccc1C2.O=C(O)c1ccccc1
148 to 158 °C (dec.)	CN(C)CCNC(=O)C1=C[C@@]2(CC1)CCN(C(=O)c1ccc(NC(=O)c3ccccc3F)cc1)c1ccccc1C2 (as salt: phosphate)
